Results published in patent publication US20240000828A1 (priority 2020, published 2024).
Values joined by “and” are separate entries in the source; they are usually repeats but may differ in a detail not shown here. Equal entries are not always repeated. Where two headings read alike, the source gives them in different places.

Legend:
[1] = test system: SARS-CoV-2 (MEX-BC2/2020); experiment: Live SARS-CoV-2 CPE-based antiviral assay in Vero E6 cells (neutral red uptake); format: cell-based
Vero E6 cells = details: for Viability of Uninfected Vero E6 Cells (A540): 4 days, individual replicates; for Viability of Uninfected Vero E6 Cells (% Vehicle): 4-day treatment
glycoprotein B-2 (gpB-2) = glycoprotein B-2 (gpB-2) (Human herpesvirus 2, UniProt P08666); details: cited from earlier work
Chain of glycoprotein B-2 (gpB-2) (P08666 23-904 limits assumed): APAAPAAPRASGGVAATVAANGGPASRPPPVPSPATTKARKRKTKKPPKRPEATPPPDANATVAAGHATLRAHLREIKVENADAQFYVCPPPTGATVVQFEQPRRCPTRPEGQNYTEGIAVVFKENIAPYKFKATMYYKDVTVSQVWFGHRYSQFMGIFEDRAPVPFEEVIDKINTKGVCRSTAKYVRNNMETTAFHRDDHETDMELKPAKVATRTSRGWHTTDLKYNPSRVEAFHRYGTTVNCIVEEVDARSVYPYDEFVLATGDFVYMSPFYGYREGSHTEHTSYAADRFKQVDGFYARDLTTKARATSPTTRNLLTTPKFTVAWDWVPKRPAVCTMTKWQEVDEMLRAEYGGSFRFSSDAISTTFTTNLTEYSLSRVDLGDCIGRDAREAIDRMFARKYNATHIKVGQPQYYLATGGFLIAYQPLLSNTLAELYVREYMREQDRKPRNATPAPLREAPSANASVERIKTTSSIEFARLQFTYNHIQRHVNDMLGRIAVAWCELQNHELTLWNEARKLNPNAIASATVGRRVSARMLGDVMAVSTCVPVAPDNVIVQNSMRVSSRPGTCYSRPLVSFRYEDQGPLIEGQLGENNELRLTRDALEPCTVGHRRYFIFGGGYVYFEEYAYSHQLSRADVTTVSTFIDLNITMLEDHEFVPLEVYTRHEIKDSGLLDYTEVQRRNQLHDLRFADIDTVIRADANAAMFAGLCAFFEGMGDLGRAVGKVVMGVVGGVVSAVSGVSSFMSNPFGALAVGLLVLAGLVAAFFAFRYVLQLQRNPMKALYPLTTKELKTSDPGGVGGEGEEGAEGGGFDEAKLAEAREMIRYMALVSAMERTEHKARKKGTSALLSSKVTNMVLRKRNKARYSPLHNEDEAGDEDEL

gp120 = details: by binding gp120; cited from earlier work
Ebola virus = details: cited from earlier work
[2] = test system: influenza A/California/07/2009 (H1N1); experiment: microbe, parasite or virus in culture; format: cell-based, Influenza A Virus

N#C[C@@]1(c2ccc3c(N)ncnn23)O[C@H](CO)[C@@H](O)[C@H]1O [GS-441524]
Inhibition of SARS-CoV-2 (MEX-BC2/2020) Virus-Induced CPE (%) ([1]; 0.03 μM, single data point): −7.0%
Inhibition of SARS-CoV-2 (MEX-BC2/2020) Virus-Induced CPE (%) ([1]; 0.25 μM, single data point): 51.9%
Inhibition of SARS-CoV-2 (MEX-BC2/2020) Virus-Induced CPE (%) ([1]; 0.74 μM, single data point): 89.7%
prevention of the virus-induced CPE ([1]; 1 μM): completely prevented
Inhibition of SARS-CoV-2 (MEX-BC2/2020) Virus-Induced CPE (%) ([1]; 1 μM, positive control wells): 112.3 ± 24.4%
Inhibition of SARS-CoV-2 (MEX-BC2/2020) Virus-Induced CPE (%) ([1]; 2.2 μM, single data point): 89.9%
Inhibition of SARS-CoV-2 (MEX-BC2/2020) Virus-Induced CPE (%) ([1]; 6.7 μM, single data point): 96.3%
Inhibition of SARS-CoV-2 (MEX-BC2/2020) Virus-Induced CPE (%) ([1]; 10 μM, positive control wells): 117.2 ± 5.4%
prevention of the virus-induced CPE of the infected cells ([1]; control inhibitor, concentration not given): prevented completely
IC50 ([1]; control inhibitor, single data points, Vero E6, 96 hours): 170 nM
Viability of Uninfected Vero E6 Cells (A540) (Vero E6 cells; 1 μM): 1.404 and 1.753
loss of viability in uninfected cells (Vero E6 cells; 10 μM): no significant loss of viability
Viability of Uninfected Vero E6 Cells (A540) (Vero E6 cells; 10 μM): 1.616

CC[C@H]1CN2CCc3cc(OC)c(OC)cc3[C@@H]2C[C@@H]1C[C@H]1NCCc2cc(OC)c(OC)cc21 [Emetine]
inhibition of cell viability (A549 cells; 10 μM): greater than 85%
Viability in A549 cells (% Vehicle) (A549 cells; 10 μM, cytotoxic control): 14.0 ± 4.6%
Viability in A549 Cells (A490) (A549 cells; 10 μM, cytotoxic control, 48 hours, individual replicates): 0.236 and 0.179

C[S+](C)[O-] [DMSO, Dimethyl sulfoxide]
Viability of Uninfected Vero E6 Cells (% Vehicle) (Vero E6 cells; 10%, cytotoxic agent control): −0.2 ± 0.0%
Viability of Uninfected Vero E6 Cells (A540) (Vero E6 cells; 10%, cytotoxic agent control): 0.074 and 0.073
block of cell viability (Vero E6 cells; tested at 10%): more than 99%

polyphenylene carboxymethylene [PPCM]
binding to gpB-2, which prevents herpes attachment and fusion (glycoprotein B-2 (gpB-2)): binds
cell-to-cell transmission and primary infection by multiple clades of HIV-1 (gp120): prevents
inhibition of Ebola virus (Ebola virus): inhibited

CCN(CC)CCCC(C)Nc1ccnc2cc(Cl)ccc12 (centres unmarked) [CQ, chloroquine diphosphate]
Absorbance (540 nm), SARS-CoV-2-induced CPE [1]: 0.985 and 1.011
Inhibition of SARS-CoV-2 (MEX-BC2/2020) Virus-Induced CPE (%) ([1]; 5 μM, positive control wells): 61.8 ± 2.5%
Viability of Uninfected Vero E6 Cells (% Vehicle) (Vero E6 cells; 5 μM): 75.9 ± 2.6%
Viability of Uninfected Vero E6 Cells (A540) (Vero E6 cells; 5 μM): 1.206 and 1.262

O=C1c2c(O)c(=O)ccn2N([C@@H]2c3ccccc3SCc3c2ccc(F)c3F)[C@@H]2COCCN12 [Baloxavir, baloxavir]
IAV Infectivity in A549 Cells (% Vehicle) ([2]; 0.01 nM, single data point): 95.3%
IVA Infectivity in A549 Cells (Absorbance 490 nm) ([2]; 0.01 nM, single data point): 1.064
IAV Infectivity in A549 Cells (% Vehicle) ([2]; 0.06 nM, single data point): 86.9%
IVA Infectivity in A549 Cells (Absorbance 490 nm) ([2]; 0.06 nM, single data point): 1.000
IAV Infectivity in A549 Cells (% Vehicle) ([2]; 0.32 nM, single data point): 64.4%
IVA Infectivity in A549 Cells (Absorbance 490 nm) ([2]; 0.32 nM, single data point): 0.828
IAV Infectivity in A549 Cells (% Vehicle) ([2]; 1.6 nM, single data point): 17.7%
IVA Infectivity in A549 Cells (Absorbance 490 nm) ([2]; 1.6 nM, single data point): 0.471
IAV Infectivity in A549 Cells (% Vehicle) ([2]; 8.0 nM, single data point): 6.1%
IVA Infectivity in A549 Cells (Absorbance 490 nm) ([2]; 8.0 nM, single data point): 0.383
IAV Infectivity in A549 Cells (% Vehicle) ([2]; 40 nM, single data point): 5.6%
IVA Infectivity in A549 Cells (Absorbance 490 nm) ([2]; 40 nM, single data point): 0.379
IAV Infectivity in A549 Cells (% Vehicle) ([2]; 0.2 μM, positive control): 6.0%
IVA Infectivity in A549 Cells (Absorbance 490 nm) ([2]; 0.2 μM, positive control, 48 hours, individual replicates, listed as BLX): 0.383 and 0.391 and 0.374
IAV Infectivity in A549 Cells (% Vehicle) ([2]; 200 nM, single data point): 6.0%
IVA Infectivity in A549 Cells (Absorbance 490 nm) ([2]; 200 nM, single data point): 0.382
IAV Infectivity in A549 Cells (% Vehicle) ([2]; 1,000 nM, single data point): 10.8%
IVA Infectivity in A549 Cells (Absorbance 490 nm) ([2]; 1,000 nM, single data point): 0.419
IC50 ([2]; Influenza A virus, H1N1, control antiviral, single data points, A549 cells, 48 hours, read-out: IC50, IAV Antiviral Assay): 0.49 nM
block of infection ([2]; at some concentrations tested): over 99%
Viability in A549 cells (% Vehicle) (A549 cells; 0.2 μM): 102.0 ± 2.4%
